# Assay results taken from the supplement of paper PMC11616607.
# Assays:
# Assay in all cases: drug sensitivity score (DSS) from 5-point dose-response viability curve (DSS (area-under-curve based score)); higher = more sensitive (stronger growth inhibition or killing); extreme values may be limits of the assay
# Settings in all cases: exposure time: 72 h; concentration range: 5 concentrations over 10,000-fold range
# OVCAR5 = tested on: OVCAR5
# How it was run: (§1)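 Drug sensitivity scores were calculated in Breeze software for each cell line and drug pair; higher scores indicate more sensitivity. A score of zero indicates no response. The underlying assay used 384-well plates: drugs were placed by an Echo 550 acoustic dispenser at five concentrations spanning a 10,000-fold range, 1,500 ovarian cancer or normal ovarian cells were added per well, and cells were kept 3 days at 37°C, 5% CO2. Viability was then measured with CellTiter-Glo luminescence on a PHERAstar FS.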
# Kuramochi = tested on: Kuramochi
# How it was run: as §1
# Ovsaho = tested on: Ovsaho
# How it was run: as §1
# HOSE2C = tested on: HOSE2C
# How it was run: as §1
# HOSE1C = tested on: HOSE1C
# How it was run: as §1
# OV90 = tested on: OV90
# How it was run: as §1
# JHOS2 = tested on: JHOS2
# How it was run: as §1
# OVCAR4 = tested on: OVCAR4
# How it was run: as §1
# COV318 = tested on: COV318
# How it was run: as §1
# COV362 = tested on: COV362
# How it was run: as §1
# CAOV3 = tested on: CAOV3
# How it was run: as §1
# OVCAR8 = tested on: OVCAR8
# How it was run: as §1
SMILES,drug sensitivity score (OVCAR5),drug sensitivity score (Kuramochi),drug sensitivity score (Ovsaho),drug sensitivity score (HOSE2C),drug sensitivity score (HOSE1C),drug sensitivity score (OV90),drug sensitivity score (JHOS2),drug sensitivity score (OVCAR4),drug sensitivity score (COV318),drug sensitivity score (COV362),drug sensitivity score (CAOV3),drug sensitivity score (OVCAR8)
CCN(CC)CCNC(=O)c1c(C)[nH]c(/C=C2\C(=O)Nc3ccc(-c4csc(-c5ccccc5)n4)cc32)c1C [Amcasertib],1.3,0,0,5.2,8.8,0,0,0.8,8.8,0.5,0,0.6
Cc1cc(Nc2nc(N[C@@H](C)c3ncc(F)cn3)ncc2Cl)[nH]n1 [AZD1480],0.5,0,0.7,2.8,0,0,0,0.5,0,0,0,0
Cc1c(-c2ccc(N3CCc4cccc(C(=O)Nc5nc6ccccc6s5)c4C3)nc2C(=O)O)cnn1CC12CC3CC(CC(C3)C1)C2,1,0,2.5,5.8,20.6,7.6,0,2.1,0,0,5.1,0.8
Nc1ccccc1NC(=O)c1ccc(CNc2nccc(-c3cccnc3)n2)cc1 [Mocetinostat],13.7,7,7.8,15.7,17.8,7.5,7.3,6.8,8.1,1.1,7.1,13
COC(=O)c1ccc([C@H]2c3[nH]c4ccccc4c3C[C@H](C(=O)OC)N2C(=O)CCl)cc1 [RSL3],3.1,0,0,25.4,14.5,0,0,0,0,0,0,0
CC(C)C[C@H](NC(=O)[C@@H](COC(C)(C)C)NC(=O)[C@H](Cc1ccc(O)cc1)NC(=O)[C@H](CO)NC(=O)[C@H](Cc1c[nH]c2ccccc12)NC(=O)[C@H](Cc1cnc[nH]1)NC(=O)[C@@H]1CCC(=O)N1)C(=O)N[C@@H](CCCNC(=N)N)C(=O)N1CCC[C@H]1C(=O)NNC(N)=O [Goserelin],0,0,4.7,0,0,0,0,0,0,0,0,0
CC(C)NC[C@@H](C(=O)N1CCN(c2ncnc3c2[C@H](C)C[C@H]3O)CC1)c1ccc(Cl)cc1 [Ipatasertib],3,2.6,1.6,4.4,2.7,0.5,0.1,0,0.1,0,1.9,0.5
CCc1cncnc1N1CCN(Cc2nc3ccc(C(F)(F)F)cc3[nH]2)CC1,2.8,1.1,1.2,0,0,2.9,0.8,2.3,1.1,0,0.9,3.1
CC(=O)O[C@H]1C(=O)[C@@]2(C)[C@H]([C@H](OC(=O)c3ccccc3)[C@]3(O)C[C@H](OC(=O)[C@H](O)[C@@H](NC(=O)c4ccccc4)c4ccccc4)C(C)=C1C3(C)C)[C@]1(OC(C)=O)CO[C@@H]1C[C@@H]2O [Paclitaxel],21.4,13.8,11.8,25,25.1,14.9,14.4,7.8,5.7,8.9,25.9,27.6
CC[C@H](NC(=O)[C@H](C)NC)C(=O)N1C[C@@H](O)C[C@H]1Cc1c(-c2[nH]c3cc(F)ccc3c2C[C@@H]2C[C@H](O)CN2C(=O)[C@H](CC)NC(=O)[C@H](C)NC)[nH]c2cc(F)ccc12 [Birinapant],0,0.4,11.6,0,0,0.8,5.6,12.6,0.2,0,9.2,1.9
CN(C)C[C@@H]1CCn2cc(c3ccccc32)C2=C(C(=O)NC2=O)c2cn(c3ccccc23)CCO1 [Ruboxistaurin],5.6,7.2,9.2,6.2,6.3,6.4,8.8,2.5,7.7,2.5,7,6.6
CC(C)Nc1cc(-c2c[nH]c(C(=O)N[C@H](CO)c3cccc(Cl)c3)c2)c(Cl)cn1 [Ulixertinib],7.8,7.7,11.5,2.2,0,14,3.8,1.1,0.9,1.9,8,3.6
CCS(=O)(=O)N1CCN(c2ccc(Nc3ncc(C(N)=O)c(NC4CC4)n3)cc2)CC1 [Cerdulatinib],0,0,0,0.8,0,0.6,3.5,0.3,0,2.7,0.2,0
N#CCNC(=O)c1ccc(-c2ccnc(Nc3ccc(N4CCOCC4)cc3)n2)cc1 [Momelotinib],3.3,1,2.4,5.8,6.8,2.6,6.9,0,2.7,1,0.9,4.8
